The values below are quoted from earlier work in US20080058318A1 (priority 2006, published 2008).

Counter-ions that a name gives are not always drawn.

The subject of the series is fibromyalgia patients. Particulars: cited from earlier work.

`CCN(CC)C(=O)C1(c2ccccc2)CC1CN` (racemic) [milnacipran, Z-2-aminomethyl-1-phenyl-N,N-diethylcyclopropanecarboxamide hydrochloride]: the “Deaths or serious adverse events associated with treatment” value (Phase II study) is “no deaths or serious adverse events”. Also, the “Patients with adverse events from elevation in hepatic enzymes” value (milnacipran-treated patients) is recorded as 2%.
